Reference: ChEMBL document CHEMBL1147537, “N-Benzoyl amino acids as ICAM/LFA-1 inhibitors. Part 2: structure-activity relationship of the benzoyl moiety” (Bioorg Med Chem Lett, 2004)
Non-standard residues stand in square brackets, D forms with d. Residues, ends and D or L forms follow the SMILES beside them. ξ: configuration not given here. ξPip = O=C(O)C1CCCCN1

Biological target: Intercellular adhesion molecule (ICAM-1), Integrin alpha-L/beta-2 (Homo sapiens, UniProt P05107+P05362+P20701)
Assay: Inhibitory activity against association of LFA-1 with intercellular adhesion molecule 1
Type: protein-complex assay

Sequence of Intercellular adhesion molecule (ICAM-1), Integrin alpha-L/beta-2 (P20701 whole entry): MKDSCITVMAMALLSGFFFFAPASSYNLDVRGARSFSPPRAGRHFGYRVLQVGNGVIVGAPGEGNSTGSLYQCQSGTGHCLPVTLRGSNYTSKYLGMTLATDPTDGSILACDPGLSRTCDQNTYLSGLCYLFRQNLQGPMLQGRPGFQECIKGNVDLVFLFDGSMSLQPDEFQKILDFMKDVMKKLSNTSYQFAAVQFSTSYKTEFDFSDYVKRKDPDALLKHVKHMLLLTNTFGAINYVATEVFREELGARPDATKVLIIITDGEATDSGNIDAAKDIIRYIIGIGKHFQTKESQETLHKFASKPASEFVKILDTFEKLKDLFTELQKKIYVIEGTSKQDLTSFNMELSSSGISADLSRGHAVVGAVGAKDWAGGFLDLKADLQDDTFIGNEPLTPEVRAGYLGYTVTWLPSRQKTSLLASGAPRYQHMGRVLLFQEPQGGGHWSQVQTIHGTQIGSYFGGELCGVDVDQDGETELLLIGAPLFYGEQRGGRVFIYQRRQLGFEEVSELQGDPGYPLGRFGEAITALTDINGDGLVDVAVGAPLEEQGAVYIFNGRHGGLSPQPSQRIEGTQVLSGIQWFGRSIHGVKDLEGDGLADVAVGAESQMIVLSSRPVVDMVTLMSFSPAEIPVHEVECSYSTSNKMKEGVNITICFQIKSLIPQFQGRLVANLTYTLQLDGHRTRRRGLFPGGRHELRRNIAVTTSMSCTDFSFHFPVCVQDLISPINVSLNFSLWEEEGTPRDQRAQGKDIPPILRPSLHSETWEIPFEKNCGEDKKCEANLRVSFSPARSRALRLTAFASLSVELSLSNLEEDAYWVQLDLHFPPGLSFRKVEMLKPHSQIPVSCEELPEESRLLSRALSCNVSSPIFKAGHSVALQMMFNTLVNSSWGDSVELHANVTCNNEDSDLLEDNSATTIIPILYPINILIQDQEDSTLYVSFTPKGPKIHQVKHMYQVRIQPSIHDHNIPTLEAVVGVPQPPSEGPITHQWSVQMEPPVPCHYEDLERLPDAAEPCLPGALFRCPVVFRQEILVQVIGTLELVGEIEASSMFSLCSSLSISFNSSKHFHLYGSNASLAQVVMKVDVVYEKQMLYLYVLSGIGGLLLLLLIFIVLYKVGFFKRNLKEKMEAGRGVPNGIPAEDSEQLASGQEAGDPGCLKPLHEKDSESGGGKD
Sequence of Intercellular adhesion molecule (ICAM-1), Integrin alpha-L/beta-2 (P05362 whole entry): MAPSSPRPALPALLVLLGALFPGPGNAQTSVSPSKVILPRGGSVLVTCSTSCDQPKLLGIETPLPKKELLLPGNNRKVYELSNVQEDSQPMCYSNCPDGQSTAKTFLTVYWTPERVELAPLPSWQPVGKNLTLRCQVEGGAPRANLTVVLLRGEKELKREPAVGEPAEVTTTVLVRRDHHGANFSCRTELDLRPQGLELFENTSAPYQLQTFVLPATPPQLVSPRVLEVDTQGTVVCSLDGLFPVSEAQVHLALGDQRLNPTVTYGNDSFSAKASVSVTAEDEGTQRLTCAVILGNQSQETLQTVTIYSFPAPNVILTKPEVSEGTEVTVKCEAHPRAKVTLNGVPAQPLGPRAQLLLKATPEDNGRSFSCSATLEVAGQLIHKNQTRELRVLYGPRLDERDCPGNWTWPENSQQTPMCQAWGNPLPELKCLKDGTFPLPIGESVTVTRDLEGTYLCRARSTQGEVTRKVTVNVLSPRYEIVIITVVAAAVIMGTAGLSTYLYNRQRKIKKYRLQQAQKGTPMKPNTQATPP
Sequence of Intercellular adhesion molecule (ICAM-1), Integrin alpha-L/beta-2 (P05107 whole entry): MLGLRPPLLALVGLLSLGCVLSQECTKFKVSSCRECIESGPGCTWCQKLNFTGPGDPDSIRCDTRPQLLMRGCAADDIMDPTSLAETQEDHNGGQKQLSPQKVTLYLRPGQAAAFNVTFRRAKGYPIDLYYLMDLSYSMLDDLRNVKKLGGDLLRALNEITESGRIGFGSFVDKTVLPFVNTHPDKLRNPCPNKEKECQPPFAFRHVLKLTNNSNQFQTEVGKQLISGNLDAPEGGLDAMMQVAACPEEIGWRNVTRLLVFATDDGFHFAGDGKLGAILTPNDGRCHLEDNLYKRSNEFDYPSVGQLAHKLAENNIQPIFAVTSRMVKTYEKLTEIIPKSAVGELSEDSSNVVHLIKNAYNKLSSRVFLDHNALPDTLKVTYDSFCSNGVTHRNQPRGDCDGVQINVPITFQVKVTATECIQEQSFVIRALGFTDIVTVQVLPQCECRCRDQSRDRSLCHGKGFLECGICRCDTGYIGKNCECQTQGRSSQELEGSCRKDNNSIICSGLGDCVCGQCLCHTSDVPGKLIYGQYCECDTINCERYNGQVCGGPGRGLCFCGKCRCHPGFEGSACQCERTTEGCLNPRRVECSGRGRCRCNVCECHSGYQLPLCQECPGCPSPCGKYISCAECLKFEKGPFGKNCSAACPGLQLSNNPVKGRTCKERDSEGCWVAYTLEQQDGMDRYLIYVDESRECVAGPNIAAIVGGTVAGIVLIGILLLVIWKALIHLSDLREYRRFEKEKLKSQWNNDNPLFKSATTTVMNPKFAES

Structure (SMILES)	IC50 [µM]
O=C(N[C@@H](Cc1c[nH]c2ccccc12)C(=O)O)c1ccccc1	127
O=C(N[C@@H](Cc1c[nH]c2ccccc12)C(=O)O)C1CCNCC1	> 1000
O=C(N[C@@H](Cc1c[nH]c2ccccc12)C(=O)O)c1ccccc1O	> 500
O=C(N[C@@H](Cc1c[nH]cn1)C(=O)O)c1c(F)cccc1Cl	0.13
O=C(N[C@@H](Cc1c[nH]c2ccccc12)C(=O)O)c1c(F)cccc1Br	0.43
O=C(N[C@@H](Cc1c[nH]c2ccccc12)C(=O)O)C1CCCNC1 (stereo partly drawn)	> 1000
O=C(N[C@@H](Cc1c[nH]c2ccccc12)C(=O)O)c1ccccc1F	7.4
O=C(O)[C@H](Cc1c[nH]c2ccccc12)NC(=O)N1CCCCC1	380
O=C(N[C@@H](Cc1c[nH]c2ccccc12)C(=O)O)c1cccc(Cl)c1Cl	6.3
NC(=O)C[C@H](NC(=O)c1c(Cl)cccc1Cl)C(=O)O	0.17
Nc1ccc(C(=O)N[C@@H](Cc2c[nH]c3ccccc23)C(=O)O)c(Cl)c1	2
O=C(N[C@@H](Cc1c[nH]c2ccccc12)C(=O)O)c1c(F)cccc1F	0.46
O=C(N[C@@H](Cc1c[nH]c2ccccc12)C(=O)O)c1cc(Br)ccc1O	> 500
O=C(N[C@@H](Cc1c[nH]c2ccccc12)C(=O)O)c1ccccc1I	8.9
Cc1ccc(C(=O)N[C@@H](Cc2c[nH]c3ccccc23)C(=O)O)cc1	129
O=C(N[C@@H](Cc1c[nH]c2ccccc12)C(=O)O)c1cccnc1	112
O=C(N[C@@H](Cc1c[nH]c2ccccc12)C(=O)O)c1cncc(Br)c1	> 200
O=C(N[C@@H](Cc1c[nH]c2ccccc12)C(=O)O)C1CCCCC1	61
O=C(N[C@@H](Cc1c[nH]c2ccccc12)C(=O)O)c1c(F)cccc1Cl	0.25
O=C(N[C@@H](Cc1c[nH]c2ccccc12)C(=O)O)c1ccc(-c2ccccc2)cc1	> 100
O=C(N[C@@H](Cc1c[nH]c2ccccc12)C(=O)O)c1ccc(Cl)cc1Cl	8.4

Structure (SMILES)	IC50 [µM]
O=C(N[C@@H](Cc1c[nH]c2ccccc12)C(=O)O)c1ccccc1-c1ccccc1	> 100
Cc1cccc(C(=O)N[C@@H](Cc2c[nH]c3ccccc23)C(=O)O)c1	295
O=C(N[C@@H](Cc1c[nH]c2ccccc12)C(=O)O)c1ccc(F)cc1	136
O=C(N[C@@H](Cc1c[nH]c2ccccc12)C(=O)O)c1ccc([N+](=O)[O-])cc1Cl	5.2
Cc1cccc(C)c1C(=O)N[C@@H](Cc1c[nH]c2ccccc12)C(=O)O	1.1
O=C(N[C@@H](Cc1c[nH]c2ccccc12)C(=O)O)c1cc(Br)ccc1Br	24.3
COc1ccc(C(=O)N[C@@H](Cc2c[nH]c3ccccc23)C(=O)O)cc1	178
NC(=O)C[C@H](NC(=O)c1c(F)cccc1Cl)C(=O)O	0.11
O=C(N[C@@H](Cc1c[nH]c2ccccc12)C(=O)O)c1cnccc1Cl	32.6
O=C(N[C@@H](Cc1c[nH]c2ccccc12)C(=O)O)c1cccc(F)c1	148
O=C(N[C@@H](Cc1c[nH]cn1)C(=O)O)c1c(F)cccc1F	0.2
NC(=O)C[C@H](NC(=O)c1c(F)cccc1F)C(=O)O	0.23
O=C(N[C@@H](Cc1c[nH]c2ccccc12)C(=O)O)c1ccc(Br)cc1	61
O=C(N[C@@H](Cc1c[nH]c2ccccc12)C(=O)O)c1cccc(Br)c1	> 100
COc1cccc(C(=O)N[C@@H](Cc2c[nH]c3ccccc23)C(=O)O)c1	438
O=C(N[C@@H](Cc1c[nH]c2ccccc12)C(=O)O)c1cccc(Cl)c1	295
COc1ccccc1C(=O)N[C@@H](Cc1c[nH]c2ccccc12)C(=O)O	225
O=C(N[C@@H](Cc1c[nH]c2ccccc12)C(=O)O)c1cc(Br)ccc1Cl	17.9
COc1ccc(Br)c(C(=O)N[C@@H](Cc2c[nH]c3ccccc23)C(=O)O)c1	9
O=C(N[C@@H](Cc1c[nH]c2ccccc12)C(=O)O)c1cccc(O)c1	> 100
O=C(N[C@@H](Cc1c[nH]c2ccccc12)C(=O)O)c1cccc(I)c1	> 100

Structure (SMILES)	IC50 [µM]
Cc1cccc(Cl)c1C(=O)N[C@@H](Cc1c[nH]c2ccccc12)C(=O)O	0.64
O=C(N[C@@H](Cc1c[nH]c2ccccc12)C(=O)O)c1ccc[n+]([O-])c1	> 1000
CC1CCCCC1C(=O)N[C@@H](Cc1c[nH]c2ccccc12)C(=O)O (stereo partly drawn)	28
Cc1cccc(C)c1C(=O)N[C@@H](Cc1cnc[nH]1)C(=O)O	1.77
O=C(N[C@@H](Cc1c[nH]c2ccccc12)C(=O)O)c1ccccn1	> 100
Cc1ccccc1C(=O)N[C@@H](Cc1c[nH]c2ccccc12)C(=O)O	4
O=C(N[C@@H](Cc1c[nH]c2ccccc12)C(=O)O)c1cc(Cl)cc(Cl)c1	200
O=C(N[C@@H](Cc1c[nH]c2ccccc12)C(=O)O)c1cc(F)cc(F)c1	89.7
O=C(N[C@@H](Cc1c[nH]c2ccccc12)C(=O)O)c1ccncc1	92
O=C(N[C@@H](Cc1c[nH]c2ccccc12)C(=O)O)c1cc(F)ccc1F	11.5
O=C(N[C@@H](Cc1c[nH]c2ccccc12)C(=O)O)c1ccc(O)cc1	> 100
O=C(N[C@@H](Cc1c[nH]c2ccccc12)C(=O)O)c1ccc(Cl)c(Cl)c1	170
O=C(N[C@@H](Cc1cnc[nH]1)C(=O)O)c1c(Cl)cccc1Cl	0.16
O=C(N[C@@H](Cc1c[nH]c2ccccc12)C(=O)O)c1ccc(I)cc1	92
O=C(N[C@@H](Cc1c[nH]c2ccccc12)C(=O)O)c1c(Cl)cccc1Cl	0.6
O=C(N[C@@H](Cc1c[nH]c2ccccc12)C(=O)O)c1cccc(F)c1F	21.6
O=C(N[C@@H](Cc1c[nH]c2ccccc12)C(=O)O)c1ccccc1Cl	1.5
O=C(N[C@@H](Cc1c[nH]c2ccccc12)C(=O)O)c1cc(Cl)ccc1Cl	6.6
O=C(N[C@@H](Cc1c[nH]c2ccccc12)C(=O)O)c1cccnc1Cl	1.2
O=C(N[C@@H](Cc1c[nH]c2ccccc12)C(=O)O)C1CCCCN1 (stereo partly drawn) (H-[ξPip]-Trp-OH)	> 1000
O=C(N[C@@H](Cc1c[nH]c2ccccc12)C(=O)O)c1ccc(Cl)cc1 [BENZOTRIPT]	169
